Reference: patent US20210198277A1, “AMINE-SUBSTITUTED ARYL OR HETEROARYL COMPOUNDS” (Epizyme, Inc., priority 2016, published 2021)

Target: T1, EHMT2 (Homo sapiens, UniProt Q96KQ7)
T1 construct: host or cells: MDA-MB-231
T1 sequence (Q96KQ7 1-1210): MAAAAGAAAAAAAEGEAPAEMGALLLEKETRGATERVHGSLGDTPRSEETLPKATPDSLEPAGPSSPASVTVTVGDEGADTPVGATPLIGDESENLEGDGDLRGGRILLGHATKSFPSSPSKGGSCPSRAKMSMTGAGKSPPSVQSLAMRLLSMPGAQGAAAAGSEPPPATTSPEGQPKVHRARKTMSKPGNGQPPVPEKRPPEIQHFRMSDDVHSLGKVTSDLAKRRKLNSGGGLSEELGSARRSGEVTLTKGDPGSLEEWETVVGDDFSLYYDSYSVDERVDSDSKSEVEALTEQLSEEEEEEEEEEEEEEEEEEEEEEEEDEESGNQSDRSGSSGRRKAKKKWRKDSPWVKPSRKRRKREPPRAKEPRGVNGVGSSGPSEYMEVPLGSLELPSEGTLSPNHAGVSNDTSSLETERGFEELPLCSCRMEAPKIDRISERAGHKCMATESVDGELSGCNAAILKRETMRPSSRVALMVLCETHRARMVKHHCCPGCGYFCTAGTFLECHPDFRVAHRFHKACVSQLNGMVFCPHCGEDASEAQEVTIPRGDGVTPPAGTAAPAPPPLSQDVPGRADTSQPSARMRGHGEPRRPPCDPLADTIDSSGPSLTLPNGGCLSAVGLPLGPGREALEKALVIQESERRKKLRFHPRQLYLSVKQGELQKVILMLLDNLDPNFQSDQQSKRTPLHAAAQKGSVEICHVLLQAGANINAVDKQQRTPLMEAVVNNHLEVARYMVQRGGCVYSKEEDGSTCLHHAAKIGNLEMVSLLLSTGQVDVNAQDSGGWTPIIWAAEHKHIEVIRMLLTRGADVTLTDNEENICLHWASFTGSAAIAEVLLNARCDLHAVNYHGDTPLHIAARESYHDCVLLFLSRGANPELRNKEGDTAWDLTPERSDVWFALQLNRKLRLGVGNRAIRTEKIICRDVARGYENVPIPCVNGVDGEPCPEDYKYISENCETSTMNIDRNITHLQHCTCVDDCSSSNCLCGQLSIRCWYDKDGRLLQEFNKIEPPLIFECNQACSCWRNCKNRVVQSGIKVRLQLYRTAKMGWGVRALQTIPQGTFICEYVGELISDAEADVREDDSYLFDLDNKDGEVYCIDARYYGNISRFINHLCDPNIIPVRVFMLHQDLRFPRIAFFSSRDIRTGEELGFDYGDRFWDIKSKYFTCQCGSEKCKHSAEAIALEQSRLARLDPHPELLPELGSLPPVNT
Assay: MDA-MB-231 H3K9me2 in-cell Western assay (EHMT2 ICW)
Assay type: cell-based
Settings: H3K9me2 in-cell Western, MDA-MB-231 cells; read-out: EHMT2 ICW (IC50 μM)
Summary of the method: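 MDA-MB-231 cells (3,000/well) seeded onto compound, kept 30 min at room temperature, then 48 h at 37 °C, 5% CO2. IC50 from triplicate wells, four-parameter fit.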

Row | SMILES | IC50
1 | CNc1cc(C)nc(Nc2ccc(OC)c(OC[C@@H]3CCN(C4CC4)C3)c2)n1 (single isomer, unassigned) [Compound 481] | < 0.1 µM
2 | CNc1cc(C)nc(Nc2ccc(OC)c(OC[C@H]3CCN(C4CC4)C3)c2)n1 (single isomer, unassigned) [Compound 482] | 1 to 10 µM
3 | CNc1ccnc(Nc2ccc(OC)c(OCCOC3CC3)c2)n1 [Compound 453, N^2-(3-(2-cyclopropoxyethoxy)-4-methoxyphenyl)-N^4-methylpyrimidine-2,4-diamine] | > 10 µM
4 | CNc1cc(C)nc(Nc2ccc(OC)c(OC3CCN(C)CC3)c2)n1 [Compound 455] | > 10 µM
5 | CNc1cc(C)nc(Nc2ccc(OC)c(OCC3CCN(C4CCCC4)C3)c2)n1 (stereo not shown) [Compound 456, N^2-(3-((1-cyclopentylpyrrolidin-3-yl)methoxy)-4-methoxyphenyl)-N^4,6-dimethylpyrimidine-2,4-diamine] | > 10 µM
6 | CNc1cc(C)nc(Nc2ccc(OC)c(OCC3CCN(C4CC4)C3)c2)n1 (stereo not shown) [Compound 457] | < 0.1 µM
7 | CNc1cc(C2CCCC2)nc(Nc2ccc(OC)c(OCCCN3CCCC3)c2)n1 [Compound 458, 6-cyclopentyl-N^2-(4-methoxy-3-(3-(pyrrolidin-1-yl)propoxy)phenyl)-N^4-methylpyrimidine-2,4-diamine] | 1 to 10 µM
8 | CNc1cc(C2CCOCC2)nc(Nc2ccc(OC)c(OCCCN3CCCC3)c2)n1 [Compound 459, N^2-(4-methoxy-3-(3-(pyrrolidin-1-yl)propoxy)phenyl)-N^4-methyl-6-(tetrahydro-2H-pyran-4-yl)pyrimidine-2,4-diamine] | > 10 µM
9 | COc1cnc(Nc2nc(C)cc3[nH]ncc23)cc1OCCCN1CCCC1 [Compound 460, N-(5-methoxy-4-(3-(pyrrolidin-1-yl)propoxy)pyridine-2-yl)-6-methyl-1H-pyrazolo[4,3-c]pyridine-4-amine] | 0.1 to 1 µM
10 | CNc1cc(C)nc(Nc2ccc(OC)c(OCC3CCN(CCO)C3)c2)n1 (stereo not shown) [Compound 461, 2-(3-((2-methoxy-5-((4-methyl-6-(methylamino)pyrimidin-2-yl)amino)phenoxy)methyl)pyrrolidin-1-yl)ethan-1-ol] | 0.1 to 1 µM
11 | COc1ccc(Nc2nc(C)cc(NCC3CCOCC3)n2)cc1OCC1CCN(C2CC2)C1 (stereo not shown) [Compound 462, N^2-(3-((1-cyclopropylpyrrolidin-3-yl)methoxy)-4-methoxyphenyl)-6-methyl-N^4-((tetrahydro-2H-pyran-4-yl)methyl)pyrimidine-2,4-diamine] | 0.1 to 1 µM
12 | CNc1cc(C)nc(Nc2ccc(OC)c(OCCCN(C)C3CC3)c2)n1 [Compound 463, N^2-(3-(3-(cyclopropyl(methyl)amino)propoxy)-4-methoxyphenyl)-N^4,6-dimethylpyrimidine-2,4-diamine] | 0.1 to 1 µM
13 | COc1cnc(Nc2cc(NCC3CCOCC3)cc(C)n2)cc1OCCCN1CCCC1 [Compound 464, N^2-(5-methoxy-4-(3-(pyrrolidin-1-yl)propoxy)pyridin-2-yl)-6-methyl-N^4-((tetrahydro-2H-pyran-4-yl)methyl)pyridine-2,4-diamine] | 1 to 10 µM
14 | CNc1cc(C)nc(Nc2ccc(OC)c(OCCCN3CC(O)C3)c2)n1 [Compound 465, 1-(3-(2-methoxy-5-((4-methyl-6-(methylamino)pyrimidin-2-yl)amino)phenoxy)propyl)azetidin-3-ol] | 0.1 to 1 µM
15 | CNc1cc(C)nc(Nc2ccc(OC)c(OC3CCN(C4CC4)CC3)c2)n1 [Compound 466, N^2-(3-((1-cyclopropylpiperidin-4-yl)oxy)-4-methoxyphenyl)-N^4,6-dimethylpyrimidine-2,4-diamine] | > 10 µM
16 | CNc1cc(C)nc(Nc2ccc(OC)c(OC[C@H]3C[C@@H](N(C)C)C3)c2)n1 [Compound 468] | 1 to 10 µM
17 | CNc1cc(C)nc(Nc2ccc(OC)c(OC[C@H]3C[C@H](N(C)C)C3)c2)n1 [Compound 470] | > 10 µM
18 | CCn1nc(Nc2nccc3[nH]ccc23)cc1COCCN1CCCC1 [Compound 471] | > 10 µM
19 | CNc1cc(Nc2cc(OC[C@@H]3CCN(C)C3)c(OC)cn2)nc(C)n1 [Compound 473] | 1 to 10 µM
20 | CNc1cc(C)nc(Nc2cc(OC[C@@H]3CCN(C)C3)c(OC)cn2)c1 [Compound 475] | 0.1 to 1 µM
21 | CNc1ccnc(Nc2ccc(OC)c(OC[C@@H]3CN(C)C[C@@H]3C)c2)n1 [Compound 477] | 1 to 10 µM
22 | CNc1ccnc(Nc2ccc(OC)c(OCc3nnc(C4CC4)[nH]3)c2)n1 [Compound 478] | > 10 µM
23 | CNc1ccnc(Nc2ccc(OC)c(OCc3ncn(C4CC4)n3)c2)n1 [Compound 480] | > 10 µM
24 | CNc1cc(C(C)C)nc(Nc2ccc(OC)c(OCCCN3CCCC3)c2)n1 [Compound 483] | 0.1 to 1 µM
25 | COc1cnc(Nc2nc(C)cc3[nH]c(C)cc23)cc1OCCCN1CCCC1 [Compound 485] | 0.1 to 1 µM
26 | COc1ccc(Nc2nc(C)cc3[nH]ccc23)cc1OCCCN1CCCC1 [Compound 486] | > 10 µM

Row | SMILES | IC50
27 | CNc1cc(C)nc(Nc2ccc(OC)c([C@H]3C[C@@H]3CN(C)C)c2)n1 [Compound 487] | 1 to 10 µM
28 | CNc1cc(C)nc(Nc2ccc(OC)c([C@H]3C[C@H]3CN(C)C)c2)n1 [Compound 488] | 0.1 to 1 µM
29 | CNc1cc(C)nc(Nc2ccc(OC)c(OC(C#N)CCN3CCCC3)c2)n1 (stereo not shown) [Compound 489] | 1 to 10 µM
30 | CNc1cc(C)nc(Nc2ccc(OC)c(OCCCN3CCC3)c2)n1 [Compound 490] | < 0.1 µM
31 | CNc1cc(C)nc(Nc2ccc(OC)c(OC[C@@H]3CN(C)C[C@H]3O)c2)n1 [Compound 491] | 1 to 10 µM
32 | CNc1cc(C)nc(Nc2ccc(OC)c(OC[C@@H]3CN(C)C[C@@H]3O)c2)n1 [Compound 492] | 0.1 to 1 µM
33 | COc1cnc(Nc2nc(C)cc3[nH]ccc23)cc1OCC1CCN(C2CC2)C1 (stereo not shown) [Compound 494] | < 0.1 µM
34 | COc1cnc(Nc2nc(C)cc3[nH]ccc23)cc1OC[C@H]1CCN(C2CC2)C1 [Compound 494a] | 0.1 to 1 µM
35 | COc1cnc(Nc2nc(C)cc3[nH]ccc23)cc1OC[C@@H]1CCN(C2CC2)C1 [Compound 495] | 0.1 to 1 µM
36 | CNc1cc(C)nc(Nc2cc(Cl)c(OC)c(OCCCN3CCCC3)c2)n1 [Compound 496] | 1 to 10 µM
37 | CCc1ccc(Nc2nc(C)cc(NC)n2)cc1OCCCN1CCCC1 [Compound 497] | 0.1 to 1 µM
38 | CNc1cc(C)nc(Nc2ccc(OC)c(OCCCN3CCC4(CC4)C3)c2)n1 [Compound 498, N^2-(3-(3-(5-azaspiro[2.4]heptan-5-yl)propoxy)-4-methoxyphenyl)-N^4,6-dimethylpyrimidine-2,4-diamine] | 1 to 10 µM
39 | CNc1cc(C)nc(Nc2ccc(OC)c(OCCCCN(C)C)c2)n1 [Compound 502] | 1 to 10 µM
40 | CNc1cc(C)nc(Nc2ccc(OC)c(OCCC3CCN(C)C3)c2)n1 (stereo not shown) [Compound 503] | 1 to 10 µM
41 | CNc1cc(C)nc(Nc2ccc(OC)c(OCCCN3CCCC3C)c2)n1 (stereo not shown) [Compound 504, N^2-(4-methoxy-3-(3-(2-methylpyrrolidin-1-yl)propoxy)phenyl)-N^4,6-dimethylpyrimidine-2,4-diamine] | 0.1 to 1 µM
42 | CNc1cc(C)nc(Nc2ccc(OC)c(OCCCN3CC4CC4C3)c2)n1 (stereo not shown) [Compound 506] | 0.1 to 1 µM
43 | COc1cnc(Nc2nccc3[nH]ccc23)cc1OCCCN1CC2CC2C1 (stereo not shown) [Compound 507] | 0.1 to 1 µM
44 | CNc1cc(C)nc(Nc2ccc(OC)c(OCCC3CN(C)C3)c2)n1 [Compound 508] | > 10 µM
45 | CNc1cc(Nc2cc(OCCCN3CC4CC4C3)c(OC)cn2)nc(C)c1F (stereo not shown) [Compound 509] | 0.1 to 1 µM
46 | CNc1cc(C)nc(Nc2ccc(OC)c(OCC3CN(C4CC4)C3)c2)n1 [Compound 510] | 0.1 to 1 µM
47 | CNc1cc(C)nc(Nc2cnc(OC)c(OC[C@@H]3CCN(C4CC4)C3)c2)n1 [Compound 512] | < 0.1 µM
48 | CNc1cc(C)nc(Nc2cnc(OC)c(OCCCN3CC4CC4C3)c2)n1 (stereo not shown) [Compound 514] | 0.1 to 1 µM
49 | CCc1ncc(Nc2nc(C)cc(NC)n2)cc1OCCCN1CCCC1 [Compound 515] | 1 to 10 µM
50 | CNc1cc(C)nc(Nc2cnc(C3CC3)c(OCCCN3CCCC3)c2)n1 [Compound 516] | 1 to 10 µM
51 | CNc1cc(C)nc(Nc2ccc(OC)c(OCC3CCCN(C4CC4)C3)c2)n1 (stereo not shown) [Compound 517a] | 0.1 to 1 µM
52 | CNc1cc(C)nc(Nc2ccc(OC)c(OC[C@H]3CCCN(C4CC4)C3)c2)n1 [Compound 517b] | 0.1 to 1 µM
